# Results from patent publication US9833497B2, “Human originated EGF domain proteins and use of the same” (CHENGDU SOURCEBIO LIMITED-LIABILITY COMPANY, priority 2013, dated 2017).
# Tests used:
# Format in all cases: cell-based
# E. coli DH5α = experiment: Antibacterial activity: MIC and growth curve against E. coli DH5α in 96-well plate; conditions: minimal inhibitory concentration against E. coli DH5α; 96-well plate, 5×10^5 CFU/mL, 37° C., judged after 8 h
# Summary of the method: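 MIC taken as lowest protein level with no bacterial growth, tracked by A600 every 30 min during 37 °C, 175 rpm culture. Two-fold protein series 50-12.5 μg/mL final, triplicate wells, against 5×10^5 CFU/mL of LB-washed mid-log cells.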
# E. coli BL21 = experiment: MIC against Gram-negative bacteria: E. coli BL21
# Summary of the method: (§1)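 Inocula prepared by growing LB cultures at 37° C to 0.5 McFarland, centrifuging at 4000×g, and resuspending in fresh medium. Final density 5×10^5 CFU/mL per well with two-fold dilutions of purified EGF domain protein; shaking incubation at 37° C.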
# Pseudomonas aeruginosa = experiment: MIC against Gram-negative bacteria: Pseudomonas aeruginosa
# Summary of the method: as §1
# Klebsiella pneumonia = experiment: MIC against Gram-negative bacteria: Klebsiella pneumonia
# Summary of the method: as §1
# Enterobacter cloacae = experiment: MIC against Gram-negative bacteria: Enterobacter cloacae
# Summary of the method: as §1
# Aeromonas hydrophila = experiment: MIC against Gram-negative bacteria: Aeromonas hydrophila
# Summary of the method: as §1
# Citrobacter diversus = experiment: MIC against Gram-negative bacteria: Citrobacter diversus
# Summary of the method: as §1
# Moraxella catarrhalis = experiment: MIC against Gram-negative bacteria: Moraxella catarrhalis
# Summary of the method: as §1
# Proteus mirabilis = experiment: MIC against Gram-negative bacteria: Proteus mirabilis
# Summary of the method: as §1
# Proteus vulgaris = experiment: MIC against Gram-negative bacteria: Proteus vulgaris
# Summary of the method: as §1
# Serratia marcescens = experiment: MIC against Gram-negative bacteria: Serratia marcescens
# Summary of the method: as §1
# [1] = E. coli BL21, 96-well plate, 5×10^5 CFU/mL, 37° C., 10 h
# [2] = Pseudomonas aeruginosa, 96-well plate, 5×10^5 CFU/mL, 37° C., 10 h
# [3] = Klebsiella pneumonia, 96-well plate, 5×10^5 CFU/mL, 37° C., 10 h
# [4] = Enterobacter cloacae, 96-well plate, 5×10^5 CFU/mL, 37° C., 10 h
# [5] = Aeromonas hydrophila, 96-well plate, 5×10^5 CFU/mL, 37° C., 10 h
# [6] = Citrobacter diversus, 96-well plate, 5×10^5 CFU/mL, 37° C., 10 h
# [7] = Moraxella catarrhalis, 96-well plate, 5×10^5 CFU/mL, 37° C., 10 h
# [8] = Proteus mirabilis, 96-well plate, 5×10^5 CFU/mL, 37° C., 10 h
# [9] = Proteus vulgaris, 96-well plate, 5×10^5 CFU/mL, 37° C., 10 h
# [10] = Serratia marcescens, 96-well plate, 5×10^5 CFU/mL, 37° C., 10 h
# [11] = 10 h cultivation at 37° C., 5×10^5 CFU/mL, two-fold serial dilution
# [12] = 96-well plate, 5×10^5 CFU/mL, 37° C., 10 h
substance,measurement,setting,value
PRT131 (AGHCSTYGHLCRNGGRCREKRRGVTCDCAFSAYDGPFCS; listed as Homo sapiens),MIC,E. coli DH5α,50 µg/mL
same,MIC (μg/mL) E. coli BL21,E. coli BL21; [1],12.5 µg/mL
same,MIC (μg/mL) P. aeruginosa,Pseudomonas aeruginosa; [2],12.5 µg/mL
same,MIC (μg/mL) K. pneumonia,Klebsiella pneumonia; [3],12.5 µg/mL
same,MIC (μg/mL) E. cloacae,Enterobacter cloacae; [4],12.5 µg/mL
same,MIC (μg/mL) A. hydrophila,Aeromonas hydrophila; [5],12.5 µg/mL
same,MIC (μg/mL) C. diversus,Citrobacter diversus; [6],12.5 µg/mL
same,MIC (μg/mL) M. catarrhalis,Moraxella catarrhalis; [7],25 µg/mL
same,MIC (μg/mL) P. mirabilis,Proteus mirabilis; [8],100 µg/mL
same,MIC (μg/mL) P. vulgaris,Proteus vulgaris; [9],25 µg/mL
same,MIC (μg/mL) S. marcescens,Serratia marcescens; [10],12.5 µg/mL
PRT245 (DIDECASGKVICPYNRRCVNTFGSYYCKCHIGFELQYIS; listed as Homo sapiens),MIC,E. coli DH5α,12.5 µg/mL
same,MIC (μg/mL) E. coli BL21,"E. coli BL21; E. coli BL21, 10 h cultivation at 37° C., 5×10^5 CFU/mL",50 µg/mL
same,MIC (μg/mL) P. aeruginosa,"Pseudomonas aeruginosa; P. aeruginosa, 10 h cultivation at 37° C., 5×10^5 CFU/mL",12.5 µg/mL
same,MIC (μg/mL) K. pneumonia,"Klebsiella pneumonia; K. pneumonia, 10 h cultivation at 37° C., 5×10^5 CFU/mL",12.5 µg/mL
same,MIC (μg/mL) E. cloacae,"Enterobacter cloacae; E. cloacae, 10 h cultivation at 37° C., 5×10^5 CFU/mL",12.5 µg/mL
same,MIC (μg/mL) A. hydrophila,"Aeromonas hydrophila; A. hydrophila, 10 h cultivation at 37° C., 5×10^5 CFU/mL",12.5 µg/mL
same,MIC (μg/mL) C. diversus,"Citrobacter diversus; C. diversus, 10 h cultivation at 37° C., 5×10^5 CFU/mL",25 µg/mL
same,MIC (μg/mL) M. catarrhalis,"Moraxella catarrhalis; M. catarrhalis, 10 h cultivation at 37° C., 5×10^5 CFU/mL",12.5 µg/mL
same,MIC (μg/mL) P. mirabilis,"Proteus mirabilis; P. mirabilis, 10 h cultivation at 37° C., 5×10^5 CFU/mL",25 µg/mL
same,MIC (μg/mL) P. vulgaris,"Proteus vulgaris; P. vulgaris, 10 h cultivation at 37° C., 5×10^5 CFU/mL",12.5 µg/mL
same,MIC (μg/mL) S. marcescens,"Serratia marcescens; S. marcescens, 10 h cultivation at 37° C., 5×10^5 CFU/mL",25 µg/mL
PRT1139 (RYNLCDLLHNPCRNNSTCLALVDANQHCICREEFEGKNCE; listed as Homo sapiens),MIC,E. coli DH5α,12.5 µg/mL
same,MIC E. coli BL21,E. coli BL21; [11],25 µg/mL
same,MIC P. aeruginosa,Pseudomonas aeruginosa; [11],12.5 µg/mL
same,MIC K. pneumonia,Klebsiella pneumonia; [11],25 µg/mL
same,MIC E. cloacae,Enterobacter cloacae; [11],50 µg/mL
same,MIC A. hydrophila,Aeromonas hydrophila; [11],12.5 µg/mL
same,MIC C. diversus,Citrobacter diversus; [11],50 µg/mL
same,MIC M. catarrhalis,Moraxella catarrhalis; [11],12.5 µg/mL
same,MIC P. mirabilis,Proteus mirabilis; [11],50 µg/mL
same,MIC P. vulgaris,Proteus vulgaris; [11],12.5 µg/mL
same,MIC S. marcescens,Serratia marcescens; [11],25 µg/mL
PRT67 (EIDLCYSDPCGANGRCRSREGGYTCECFEDFTGEHCE; listed as Homo sapiens),MIC,E. coli DH5α,12.5 µg/mL
same,MIC (μg/mL) E. coli BL21,E. coli BL21; [1],50 µg/mL
same,MIC (μg/mL) P. aeruginosa,Pseudomonas aeruginosa; [2],12.5 µg/mL
same,MIC (μg/mL) K. pneumonia,Klebsiella pneumonia; [3],25 µg/mL
same,MIC (μg/mL) E. cloacae,Enterobacter cloacae; [4],50 µg/mL
same,MIC (μg/mL) A. hydrophila,Aeromonas hydrophila; [5],25 µg/mL
same,MIC (μg/mL) C. diversus,Citrobacter diversus; [6],12.5 µg/mL
same,MIC (μg/mL) M. catarrhalis,Moraxella catarrhalis; [7],25 µg/mL
same,MIC (μg/mL) P. mirabilis,Proteus mirabilis; [8],50 µg/mL
same,MIC (μg/mL) P. vulgaris,Proteus vulgaris; [9],12.5 µg/mL
same,MIC (μg/mL) S. marcescens,Serratia marcescens; [10],50 µg/mL
PRT1038 (FDMPCDETLCSADSFCVNDYTWGGSRCQCTLGKGGESCS; listed as Homo sapiens),MIC,E. coli DH5α,50 µg/mL
same,MIC,"E. coli BL21; E. coli BL21, 10 h cultivation at 37° C.",12.5 µg/mL
same,MIC,"Pseudomonas aeruginosa; P. aeruginosa, 10 h cultivation at 37° C.",50 µg/mL
same,MIC,"Klebsiella pneumonia; K. pneumonia, 10 h cultivation at 37° C.",50 µg/mL
same,MIC,"Enterobacter cloacae; E. cloacae, 10 h cultivation at 37° C.",50 µg/mL
same,MIC,"Aeromonas hydrophila; A. hydrophila, 10 h cultivation at 37° C.",12.5 µg/mL
same,MIC,"Citrobacter diversus; C. diversus, 10 h cultivation at 37° C.",25 µg/mL
same,MIC,"Moraxella catarrhalis; M. catarrhalis, 10 h cultivation at 37° C.",50 µg/mL
same,MIC,"Proteus mirabilis; P. mirabilis, 10 h cultivation at 37° C.",50 µg/mL
same,MIC,"Proteus vulgaris; P. vulgaris, 10 h cultivation at 37° C.",12.5 µg/mL
same,MIC,"Serratia marcescens; S. marcescens, 10 h cultivation at 37° C.",25 µg/mL
PRT500 (CNCDPVGSLSSVCIKDDLHSDLHNGKQPGQCPCKEGYTGEKCDRCQLGYKDYPTCVS; listed as Homo sapiens),MIC,E. coli DH5α,25 µg/mL
same,MIC against E. coli BL21,E. coli BL21; [12],50 µg/mL
same,MIC against P. aeruginosa,Pseudomonas aeruginosa; [12],25 µg/mL
same,MIC against K. pneumonia,Klebsiella pneumonia; [12],12.5 µg/mL
same,MIC against E. cloacae,Enterobacter cloacae; [12],25 µg/mL
same,MIC against A. hydrophila,Aeromonas hydrophila; [12],50 µg/mL
same,MIC against C. diversus,Citrobacter diversus; [12],25 µg/mL
same,MIC against M. catarrhalis,Moraxella catarrhalis; [12],12.5 µg/mL
same,MIC against P. mirabilis,Proteus mirabilis; [12],25 µg/mL
same,MIC against P. vulgaris,Proteus vulgaris; [12],50 µg/mL
same,MIC against S. marcescens,Serratia marcescens; [12],25 µg/mL
